From US20200268762A1, “7-SUBSTITUTED SULFONIMIDOYLPURINONE COMPOUNDS AND DERIVATIVES FOR THE TREATMENT AND PROPHYLAXIS OF LIVER CANCER” (Hoffmann-La Roche Inc., priority 2019, published 2020)
“Also recorded” adds a separate entry of the source.

Legend:
[1] = system: iAST mouse model of hepatocellular carcinoma; assay: iAST mouse model of hepatocellular carcinoma, tumor burden; details: iAST mice, day 12 after treatment start; 41-A 10 mg/kg once a week oral, Sorafenib 90 mg/kg daily
Experimental: Per group n=10 were analyzed by One-way ANOVA and Tukey correction shown as individual dots with means±SEM using GraphPad Prism software version 6.

[2] = system: Hep55.1c mouse model of hepatocellular carcinoma; assay: Hep55.1c tumor fragment transplantation model, survival; assay type: in vivo, C57BL/6N mice; details: alive on day 94 after tumor fragment transplantation; 41-A weekly oral, anti-PD-1 250 μg i.p. 8 doses
Experimental: Female C57BL/6N mice (Jackson Laboratories) were injected intra hepatically with 5×10^5 Hep55.1c tumor cell line together with Matrigel (Matrigel Basement Membrane Matrix, Corning Cat #354234) in a total volume of 20 μl (10 μl cell suspension plus 10 μl Martigel). After 3 weeks, animals were sacrificed and tumors excised from the liver. Excised tumors were cut into 1×1 mm^3 pieces and implanted into the liver of female C57BL/6N mice. Scout animals were sacrificed to determine the time point of treatment start at about 80 mm^3 tumor volume. […] 41-A was given weekly, while anti-PD-1 antibody treatment started one day after 41-A treatment and was continued every three to four days for 8 doses in total. Treatment with both agents was stopped after the last anti-PD-1 administration.

[3] = system: PD-L1 expression on tumor cells; assay: PD-L1 expression on tumor cells of iAST mice by flow cytometry; assay type: in vivo, mouse; details: day 12 after treatment start
Experimental: Tumors from iAST mice were treated as described in FIG. 1. […] For flow cytometry, tumors were excised and single cell suspensions obtained by mechanical processing and enzymatic digestion (DNAse 0.01%, Collagenase IV 1 mg/ml). Staining procedures started with Fc receptor blocking using 2.4G2 antibody clone (1:200 dilution, BD Bioscience), and the following antibodies (clones) were used to analyzed leukocyte infiltrate: CD45-FITC (30-F11, BioLegend) and CD11b-BUV737 (M1/70, BD Bioscience). Samples were acquired using a LSR Fortessa machine (BD Bioscience) and analyzed by FlowJo version 10 (Treestar).

[4] = system: Hep55.1c tumor bearing mice; assay: Transplanted Hep55.1c mouse model of hepatocellular carcinoma, tumor volume by μCT; assay type: in vivo, C57BL/6N mice; details: Hep55.1c intrahepatic tumors; 41-A 10 mg/kg weekly oral; anti-CD40 4 mg/kg single dose; vs vehicle
Experimental: Female C57BL/6N mice (Jackson Laboratories) were injected intra hepatically with 5×10^5 Hep55.1c tumor cell line together with Matrigel (Matrigel Basement Membrane Matrix, Corning Cat #354234) in a total volume of […] (10 μl cell suspension plus 10 μl Martigel). Tumor volume was monitored weekly using μCT (TomoScope Synergy Twin, CT Imaging GmbH) upon a single intravenous administration of contrasting agent Exitron 6000 (Viscovert). Imaging data were reconstructed by TomoScope software and analyzed using Osirix software. […] To compare to another agonistic, immune stimulating agent, a single dose of anti-CD40 antibody (4 mg/kg; clone FGK.45, BioXCell) was given. Data depicted are means±SEM for a minimum of n=9 animals per group.

CCCN(C)C(=O)n1c(=O)n(Cc2ccc(Cl)cc2)c2nc([S@](=N)(=O)CC)nc(N)c21 [Example 41-A, 6-Amino-9-[(4-chlorophenyl)methyl]-2-[S(R)-ethylsulfonimidoyl]-N-methyl-8-oxo-N-propyl-purine-7-carboxamide]
Examination of the liver for superficial tumor nodules (tumor nodule free) [1]: 0/10 tumor nodule free
survival of mice [2]: 5/10
PD-L1 expression on tumor cells [3]: induced PD-L1 expression on tumor cells
PD-L1 expression on tumor cells ([3]; listed as compound 41-A): induces PD-L1 expression on tumor cells
tumor growth (tumor volume) [4]: tumor stasis; also recorded: inhibition of tumor growth
